The record followed here is publication doi:10.1101/2025.01.30.635686v1 (biorxiv, 2025).

For the test, the target named is T1, YME1LAAA (monomeric AAA+ domain) (Homo sapiens, UniProt Q96TA2).
T1 sequence (Q96TA2 317-588): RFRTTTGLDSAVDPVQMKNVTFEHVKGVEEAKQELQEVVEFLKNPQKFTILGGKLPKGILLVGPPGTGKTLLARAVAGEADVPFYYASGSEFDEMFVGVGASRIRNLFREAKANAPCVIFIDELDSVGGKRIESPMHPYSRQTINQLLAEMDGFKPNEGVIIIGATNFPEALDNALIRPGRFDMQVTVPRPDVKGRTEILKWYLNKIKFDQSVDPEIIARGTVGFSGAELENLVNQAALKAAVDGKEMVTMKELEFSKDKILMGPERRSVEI
Description: methyl-TROSY NMR titration. It is filed as binding.

With `Nc1ncnc2c1ncn2[C@@H]1O[C@H](COP(=O)(O)OP(=O)(O)O)[C@@H](O)[C@H]1O` [ADP], the Kd – broadly, the free concentration of one partner at which half of the binding sites on the other are occupied at equilibrium, for simple one-to-one binding – is 4.6 ± 2.3 µM.
